Data on nine compounds can be found in patent publication US4128638A, “Nona- and deca-peptide amide derivatives demonstrating high ovulation inducing activity” (ICI Australia Limited, priority 1975, dated 1978).

The subject of assay [1] is androgen-sterilized, constant-oestrous rats. The assay is described as follows: Ovulation induction in androgen-sterilized, constant-oestrous rats. The note with it: intravenous dose/rat 0.25 μg. The class given is in vivo. An excerpt:
This activity is exemplified in the table below:

Assay [2] has as its system LH release from the pituitary gland of ovariectomized ewes. The assay is described as follows: Bioassay for LH release in ovariectomized ewes (plasma LH by radioimmunoassay). The class given is in vivo. The note with it: intravenous injection. As to the method:
Each ewe was bled twice by jugular venipuncture before administration of the analogue, to establish basal levels of LH in plasma. Following intravenous injection of the appropriate analogue dissolved in saline solution (1 ml), blood samples were collected at intervals over the next three hours, centrifuged and subjected to radioimmunoassay for LH.

Where a SMILES comes first, the peptide text is derived from it. [ ]: non-standard residue; d: D form. pGlu = O=C1CC[C@@H](C(=O)O)N1

For `CC[C@H](C)[C@H](NC(=O)[C@@H](C)NC(=O)[C@H](Cc1ccc(O)cc1)NC(=O)[C@H](CO)NC(=O)[C@H](Cc1c[nH]c2ccccc12)NC(=O)[C@H](Cc1c[nH]cn1)NC(=O)[C@@H]1CCC(=O)N1)C(=O)N[C@@H](CCCNC(=N)N)C(=O)N1CCC[C@H]1C(=O)NCC(N)=O` [D-Ala^6 -Ile^7 -LHRH, L-Pyroglutamyl-L-histidyl-L-tryptophanyl-L-seryl-L-tyrosyl-D-alanyl-L-isoleucyl-L-arginyl-L-prolyl-glycinamide] ([pGlu]HWSY[dA]IRPG-NH2), the Ovulating rats/group in assay [1] is on record as 3/3.

For the compound `CC(C)[C@H](NC(=O)[C@@H](C)NC(=O)[C@H](Cc1ccc(O)cc1)NC(=O)[C@H](CO)NC(=O)[C@H](Cc1c[nH]c2ccccc12)NC(=O)[C@H](Cc1c[nH]cn1)NC(=O)[C@@H]1CCC(=O)N1)C(=O)N[C@@H](CCCNC(=N)N)C(=O)N1CCC[C@H]1C(=O)NCC(N)=O` [D-Ala^6 -Val^7 -LHRH, L-pyroglutamyl-L-histidyl-L-tryptophanyl-L-seryl-L-tyrosyl-D-alanyl-L-valyl-L-arginyl-L-prolylglycinamide] ([pGlu]HWSY[dA]VRPG-NH2), in assay [1], the Ovulating rats/group is reported as 3/3.

For the compound `CC(C)C[C@H](NC(=O)CCNC(=O)[C@H](Cc1ccc(O)cc1)NC(=O)[C@H](CO)NC(=O)[C@H](Cc1c[nH]c2ccccc12)NC(=O)[C@H](Cc1c[nH]cn1)NC(=O)[C@@H]1CCC(=O)N1)C(=O)N[C@@H](CCCNC(=N)N)C(=O)N1CCC[C@H]1C(=O)NCC(N)=O` [Example 1, L-Pyroglutamyl-L-histidyl-L-tryptophanyl-L-seryl-L-tyrosyl-β-alanyl-L- leucyl-L-arginyl-L-prolyl-glycinamide], the “P* (maximal release of LH by the LHRH analogue at a given dose expressed as a percentage of the LH release by LHRH at the same dose)” value in assay [2] (dose 2.5 μg) is on record as 97%; in assay [2] (dose 25 μg) it was 108%.

For `CC(C)C[C@H](NC(=O)CNC(=O)[C@H](Cc1ccc(O)cc1)NC(=O)[C@H](CO)NC(=O)[C@H](Cc1c[nH]c2ccccc12)NC(=O)[C@H](Cc1c[nH]cn1)NC(=O)[C@@H]1CCC(=O)N1)C(=O)N[C@@H](CCCNC(=N)N)C(=O)N1CCC[C@H]1C(=O)NCCC(N)=O` [Example 2, L-Pyroglutamyl-L-histidyl-L-tryptophanyl-L-seryl-L-tyrosylglycyl-L-leucyl-L-arginyl-L-prolyl-β-alaninamide], the “P* (maximal release of LH by the LHRH analogue at a given dose expressed as a percentage of the LH release by LHRH at the same dose)” value worked out at 12% in assay [2] (dose 5 μg) and 75% in assay [2] (dose 50 μg).

In the case of `CC(C)C[C@H](NC(=O)CNC(=O)[C@H](Cc1ccc(O)cc1)NC(=O)[C@H](CO)NC(=O)[C@H](Cc1c[nH]c2ccccc12)NC(=O)[C@H](Cc1c[nH]cn1)NC(=O)[C@@H]1CCC(=O)N1)C(=O)N[C@@H](CCCNC(=N)N)C(=O)N1CCC[C@H]1C(=O)N(C)CC(N)=O` [Example 3, L-Pyroglutamyl-L-histidyl-L-tryptophanyl-L-seryl-L-tyrosylglycyl-L-leucyl-L-arginyl-L-prolysarcosinamide], the “P* (maximal release of LH by the LHRH analogue at a given dose expressed as a percentage of the LH release by LHRH at the same dose)” value in assay [2] (dose 5 μg) is 70%; in assay [2] (dose 50 μg) it was 45%.

For `CNC(=O)[C@@H]1CCCN1C(=O)[C@H](CCCNC(=N)N)NC(=O)[C@H](CC(C)C)NC(=O)CCNC(=O)[C@H](Cc1ccc(O)cc1)NC(=O)[C@H](CO)NC(=O)[C@H](Cc1c[nH]c2ccccc12)NC(=O)[C@H](Cc1c[nH]cn1)NC(=O)[C@@H]1CCC(=O)N1` [β-Ala^6 -des-Gly^10 -LHRH methylamide, L-Pyroglutamyl-L-histidyl-L-tryptophanyl-L-seryl-L-tyrosyl-β-alanyl-L- leucyl-L-arginyl-L-proline N-methylamide], the Ovulating rats/group in assay [1] is reported as 3/3.

`CCCNC(=O)[C@@H]1CCCN1C(=O)[C@H](CCCNC(=N)N)NC(=O)[C@H](CC(C)C)NC(=O)CCNC(=O)[C@H](Cc1ccc(O)cc1)NC(=O)[C@H](CO)NC(=O)[C@H](Cc1c[nH]c2ccccc12)NC(=O)[C@H](Cc1c[nH]cn1)NC(=O)[C@@H]1CCC(=O)N1` [β-Ala^6 -des-Gly^10 -LHRH n-propylamide, L-pyroglutamyl-L-histidyl-L-tryptophanyl-L-seryl-L-tyrosyl-β-alanyl-L- leucyl-L-arginyl-L-proline N-n-propylamide]: the Ovulating rats/group in assay [1] is listed as 5/6.

As for `CC(C)C[C@H](NC(=O)CCNC(=O)[C@H](Cc1ccc(O)cc1)NC(=O)[C@H](CO)NC(=O)[C@H](Cc1c[nH]c2ccccc12)NC(=O)[C@H](Cc1c[nH]cn1)NC(=O)[C@@H]1CCC(=O)N1)C(=O)N[C@@H](CCCNC(=N)N)C(=O)N1CCC[C@H]1C(=O)N1CCCC1` [β-Ala^6 -des-Gly^10 -LHRH pyrrolidide, L-Pyroglutamyl-L-histidyl-L-tryptophanyl-L-seryl-L-tyrosyl-β-alanyl-L- leucyl-L-arginyl-L-proline pyrrolidide], in assay [1], the Ovulating rats/group was 3/3.

In the case of `CCNC(=O)[C@@H]1CCCN1C(=O)[C@H](CCCNC(=N)N)NC(=O)[C@H](CC(C)C)NC(=O)CCNC(=O)[C@H](Cc1ccc(O)cc1)NC(=O)[C@H](CO)NC(=O)[C@H](Cc1c[nH]c2ccccc12)NC(=O)[C@H](Cc1c[nH]cn1)NC(=O)[C@@H]1CCC(=O)N1` [β-Ala^6 des-Gly^10 -FHRH ethylamide, L-Pyroglutamyl-L-histidyl-L-tryptophanyl-L-seryl-L-tyrosyl-β-alanyl-L- leucyl-L-arginyl-L-proline N-ethylamide], in assay [1], the Ovulating rats/group is 3/3.
